Literature values, collected in paper PMC3187562 (ACS medicinal chemistry letters, 2011).

Legend:
[1] = tested on: ΔF508-CFTR; conditions: CF lung cell line expressing ΔF508-CFTR from a viral promoter
[2] = tested on: ΔF508-CFTR; conditions: Phase 2a clinical study, CF patients
[3] = tested on: HDAC7

O=C(CCCCCCC(=O)Nc1ccccc1)NO [compound 2, vorinostat]
increase of ΔF508-CFTR mRNA levels [1]: > 15 fold | increase of ΔF508-CFTR protein levels [1]: 25 fold

Cc1ccc(NC(=O)C2(c3ccc4c(c3)OC(F)(F)O4)CC2)nc1-c1cccc(C(=O)O)c1 [VX-809]
sweat chloride levels (key biomarker) [2]: reduced sweat chloride levels

CC(/C=C/C(=O)NO)=C\[C@@H](C)C(=O)c1ccc(N(C)C)cc1 [compound 1, trichostatin A]
increase of ΔF508-CFTR mRNA levels [1]: > 15 fold

C/C=C1\NC(=O)[C@H]2CSSCC/C=C/[C@H](CC(=O)N[C@H](C(C)C)C(=O)N2)OC(=O)[C@H](C(C)C)NC1=O [romidepsin]
expression of HDAC7 in treated cells [3]: selectively down-regulated
